Data on four compounds can be found in patent US7498421B2, “Degradation fragments” (Medical Research Council, priority 2001, dated 2009).

The structures appear in SMILES notation.

One series deals with porcine carotid artery. The experiment in a line: Oxygen consumption of porcine carotid artery rings (Clark oxygen electrode). The following applies: concentration of 4-methyl-3-vinylmaleimide not determined. The procedure: Porcine carotid artery were collected from an abattoir within 30 minutes of death, rinsed and immersed in PSS at 4° C., and immediately transported to the laboratory. Arteries were then trimmed of excess connective tissue and adventitia to be stored in PSS at 4° C. until use. The PSS was changed every 12 hours and the vessels were kept for up to 4 days. The PSS contained the following: 118 mmol/L sodium chloride, 25 mmol/L sodium hydrogen carbonate, 5.76 mmol/L potassium chloride, 2.5 mmol/L calcium chloride, 1.2 mmol/L magnesium sulphate, 0.5 mmol/L monobasic sodium phosphate, and 11.1 mmol/L glucose. The solution was oxygenated by bubbling with 95% oxygen and 5% carbon dioxide to maintain a pH of 7.4.
The rate of the oxygen consumption was determined using a Hansatech Instruments (Norfolk, United Kingdom) Clark oxygen electrode. Carotid artery rings approximately 0.2 cm long were vigorously rubbed to remove the endothelial cells and were added to the water-jacketed chambers containing PSS at 37° C. The rates of oxygen consumption were measured before and after the addition of crude mixture of the BR oxidative degradation products (final concentration 1 mg/mL of PSS), CSFSAH (final dilution 1/30) or 4-methyl-3-vinylmaleimide (purified on HPLC, freeze-dried and then re-dissolved in PSS). […]

A short description of series [1]: Light sensitivity of purified fractions (sunlight, HPLC / 1H NMR). It is filed as physicochemical. The following applies: sunlight for 90 min. The procedure:
The chloroform extract was dissolved in 50% (v/v) aqueous and purified by HPLC. Experiments were conducted so as to exclude light from samples. Hypersil reversed-phase C18 (250×7 mm) or Spherisorb ODS (2) reversed-phase columns (250×4.6 mm) were equilibrated with 30% (v/v) aqueous acetonitrile at a flow rate pf 2 mL min^−1 and 1 mL min^−1, respectively. Elution was performed using 30% to 36% aqueous acetonitrile linear gradient at the same flow rates over 8 min. Fractions were monitored at 320 nm and collected manually. The fractions were freeze dried and stored at −80° C. for further analyses. Each fraction was re-dissolved in 50% (v/v) aqueous acetonitrile, re-injected and re-purified using the same conditions to remove impurities from other fractions. To investigate the light sensitivity of the compounds, purified fractions were exposed to sunlight for 90 min after dissolving 50% (v/v) aqueous and analysed by HLPC.

Series [2] in a line: Heat stability judged by HPLC. As to conditions: 60° C. for 2 h.
For series [3], the system named is porcine carotid artery rings. Nature of the series: Isometric force measurement on porcine carotid artery rings. The method, then:
Isometric force measurement were performed on porcine carotid artery rings to assess functional parameters during exposure to various compounds. The methods used were those used by J F Clark et al., J. Vasc. Res., 1995, 32. 24-30. KCl induced contraction is used as maximal isometric tension generation and results are reported as percentage of KCl maxima obtained for each carotid.

With `C=CC1=C(C)C(=O)NC1=O` [4-methyl-3-vinylmaleimide], the “stimulation of oxygen consumption (in words)” value with porcine carotid artery is reported as “stimulated oxygen consumption”. In addition, in series [1], the “intensity of HPLC peaks after exposure to sunlight” value (from here on “intensity of HPLC peaks”) was “significantly decreased”. Besides, in series [2], the heat stability result is “relatively heat-stable”.

As to `C=CC1=C(C)C(=O)NC1=CC(N)=O` [Box A, 4-methyl-5-oxo-3-vinyl-(1,5-dihydropyrrol-2-ylidene)acetamide], in series [1], the “1H NMR analysis after sunlight exposure” value was “degradation to a number of products” and the “intensity of HPLC peaks” value was “significantly decreased”.

Consider `C=CC1=C(C)C(=CC(N)=O)NC1=O` [Box B, 3-methyl-5-oxo-4-vinyl-(1,5-dihydropyrrol-2-ylidene)acetamide], for which, in series [1], the “1H NMR analysis after sunlight exposure” value is listed as “degradation to a number of products” and the “intensity of HPLC peaks” value was “significantly decreased”.

On to `CC(CCc1ccc(O)cc1)NCCc1ccc(O)c(O)c1` (centres unmarked) [dobutamine], for which, in series [3], the “effect of pre-treatment on tension development induced by ox-BR and CSF-SAH” value is “abrogated”.
